SMILES strings stand for the structures.

Data set [1] is described as follows: Hydrodynamic radius / size distribution of micelles by dynamic light scattering (DLS). The format is physicochemical. The following applies: for Rh (nm), hydrodynamic radius of micelles: 1.0 wt % agent; for Micelle size change with temperature: temperature-dependent (FIGS. 7a, 7b). The method, then: A method for measuring the radius of a micelle is not particularly limited, and a method well known in the art may be used, and for example, the radius thereof may be measured using a dynamic light scattering (DLS) experiment.
To identify the characteristics of NBMs synthesized in Preparation Example 1 to 6 according to the synthetic method of Example 1, molecular weights (MWs) of NBMs, critical micelle concentrations (CMCs) and hydrodynamic radii (Rh) of the micelles were measured.
Specifically, the critical micelle concentrations (CMCs) were measured by fluorescent staining with diphenylhexatriene (DPH), and the hydrodynamic radii (Rh) of the micelle formed with individual agents (1.0 wt %) were measured by dynamic light scattering (DLS).

Data set [2] addresses T1, Salmonella typhimurium melibiose permease (MelBSt) (Salmonella typhimurium, UniProt P30878).
T1 construct: made in house; host or cells: E. coli DW2 (ΔmelB, ΔlacZY)
In words: MelBSt extraction and thermostability (SDS-PAGE / western blotting). Particulars: 1.5 wt %, elevated temperature. The protocol:
An experiment of measuring structural stability of MelBSt (Salmonella typhimurium melibiose permease) protein with NBMs was carried out. The MelBSt protein was extracted from the membrane using NBMs or DDM, and the amounts and structure of the extracted proteins were analyzed by SDS-PAGE and western blotting. The concentration of the used amphiphilic compound was 1.5 wt %. The proteins were extracted at four temperatures (0, 45, 55, and 65° C.) and incubated at the same temperature for 90 minutes, and the amounts of the remaining proteins solubilized in an aqueous solution were measured, so as to simultaneously evaluate both performances of the compound such as protein extraction efficiency and stabilization activity. The amounts of the proteins extracted and stabilized by respective amphiphilic molecules were represented as relative values (%) to the amounts of total proteins contained in the membrane sample not treated with an amphiphilic molecule.
Specifically, Salmonella typhimurium melibiose permease (MelBSt) with a C-terminal 10-His tag was expressed in E. coli DW2 cells (^ΔmelB and ^ΔlacZY) using plasmid pK95^ΔAHB/WT MelBSt/CH10. Cell growth and membrane preparation were carried out according to the method described in the literature written by A. S. Ethayathulla et al. (Nat. Commun. 2014, 5, 3009). Protein assays were carried out with a Micro BCA kit (Thermo Scientific, Rockford, Ill.). The measurement of MelBSt stability was carried out on NBMs or DDM according to the protocol described by P. S. Chae et al. (Nat. Methods 2010, 7, 1003-1008). Membrane samples containing MelBSt (final protein concentration was 10 mg/mL) were incubated with a solubilization buffer (20 mM sodium phosphate, pH 7.5, 200 mM NaCl, 10% glycerol, 20 mM melibiose) and 1.5% (w/v) of DDM or NBMs (X-NBM-C10, D-NBM-C10, X-NBM-C11 or D-NBM-C11) at four different temperatures (0, 45, 55, 65° C.) for 90 minutes. To remove insoluble materials, following ultracentrifugation at 355,590 g using a Beckman Optimal™ MAX ultracentrifuge with TLA-100 rotor for 45 minutes at 4° C. was performed, and 20 μg of each protein sample was separated by SDS-16% PAGE, and then immunoblotted with a Penta-His-HRP antibody (Qiagen, Germantown, Md.). MelBSt was detected using SuperSignal West Pico chemiluminescent substrate by an ImageQuant LAS 4000 Biomolecular Imager (GE Health Care Life Science).
(In general: Immunoblotting shows a protein as a band on a membrane.)

For data set [3], the target named is T2, β2AR / β2AR-Gs complex (Homo sapiens, UniProt P07550).
T2 construct: Flag; made in house
In words: Size exclusion chromatography of β2AR and β2AR-Gs complex after amphiphile exchange. The following applies: after amphiphile exchange, 20x CMC. The method, then:
(§1) β2AR purified with 0.1 wt % DDM was loaded onto an M1 Flag column in the presence of 2 mM […], and the column was washed with a DDM or X-NBM-C11 buffer (20 mM HEPES pH 7.5, 100 mM NaCl, 0.2% respective amphiphile). The receptor was eluted in 20× CMC DDM or X-NBM-C11 containing 5 mM EDTA and 0.2 mg/ml free Flag peptide. The eluate was further applied to a superdex-200 10/300 GL column (GE healthcare) at 0.5 ml/min, and UV absorbance at 280 nm was recorded. The running buffer contained 20 mM HEPES pH 7.5, 100 mM NaCl, 20× CMC individual detergents (DDM and X-NBM-C11).
(§2) In addition, GPCR-Gs complex purified in DDM was replaced with X-NBM-C11 through amphiphilic molecule exchange, and sample aliquots were obtained at regular intervals in 21-day incubation at 4° C. to measure complex stability.
A general note: Size exclusion chromatography separates by hydrodynamic size, large species first.

Data set [4] concerns β2AR / β2AR-Gs complex. Described as above. Particulars: 21-day incubation at 4° C. Also noted: species or system human. The method, then:
as §1, §2

The target of another data set is mBBr-β2AR (Homo sapiens, UniProt P07550). In words: Gs-protein coupling assay, bimane fluorescence of mBBr-β2AR. The following applies: 0.1% amphiphile, 2 μM ISO, 250 nM Gs. The method, then: To investigate a protein function, the receptor was conjugated with a fluorophore (monobromobimane; mBBr). The mBBr-β2AR was used to monitor the conformational changes of the receptor in the presence of binding partners (isopreoterenol (ISO) and Gs-protein) through fluorescence measurement, and detailed experimental methods are as follows.
0.5 μl undispersed mBBr-labeled receptor at 50 μM in DDM was diluted with 500 μl 0.1% NBM or DDM-containing buffer, and incubated for 15 minutes at room temperature, thereby obtaining a receptor having a final concentration of 50 nM. 2 μM isoproterenol (ISO) was added and the resulting solution was further incubated for 15 minutes at room temperature. After addition of 250 nM Gs, the protein samples were further incubated at room temperature for 20 minutes. Bimane fluorescence was measured by excitation at 370 nm, and emission spectra were recorded from 430 nm to 510 nm in a unit of 1 nm increments with 0.5 nm/s integration on a Spex FluoroMax-3 spectrofluorometer (Jobin Yvon Inc.) in photon counting mode set at 4-nm emission bandwidth pass. The mBBr response in 0.1% DDM was used as a positive control.

The target of another data set is β2AR-Gs complex (Homo sapiens, UniProt P07550). Put plainly: Negative stain EM analysis of β2AR-Gs complex. The method, then: A β2AR-Gs protein complex was prepared for electron microscopy using the conventional negative staining protocol, and imaged at room temperature with a Tecnai T12 electron microscope operated at 120 kV using low-dose procedures. Images were recorded at a magnification of 71,138× and a defocus value of approximately 1.4μ using a Gatan US4000 CCD camera. All images were binned (2×2 pixels) to obtain a pixel size of 4.16 A at the specimen level. Particles were manually excised using e2boxer (part of the EMAN2 software suite). 2D reference-free alignment and classification of particle projections were performed using ISAC. 14,556 projections of β2AR-Gs were subjected to ISAC, producing 199 classes consistent over two-way matching and accounting for 10,100 particle projections.

For `CCCCCCCCCCCOCC1C2CC([C@@H]1COCCCCCCCCCCC)[C@H](O[C@@H]1OC(CO)[C@@H](O[C@H]3OC(CO)[C@@H](O)C(O)C3O)C(O)C1O)C2O[C@@H]1OC(CO)[C@@H](O[C@H]2OC(CO)[C@@H](O)C(O)C2O)C(O)C1O` (stereo partly drawn) [D-NBM-C11], in data set [1], the “Rh (nm), hydrodynamic radius of micelles” value was 3.7 ± 0.05 nm and the “Micelle size change with temperature” value is on record as “not influenced by a temperature change”. The “MelBSt membrane protein stabilization activity (overall)” value in data set [2] is reported as “excellent membrane protein stabilization activity”.
As to `CCCCCCCCCCCOCC1C2CC([C@H]1COCCCCCCCCCCC)[C@H](O[C@@H]1OC(CO)[C@@H](O[C@H]3OC(CO)[C@@H](O)C(O)C3O)C(O)C1O)C2O[C@@H]1OC(CO)[C@@H](O[C@H]2OC(CO)[C@@H](O)C(O)C2O)C(O)C1O` (stereo partly drawn) [X-NBM-C11], in data set [1], the “Rh (nm), hydrodynamic radius of micelles” value is reported as 17.3 ± 0.10 nm and the “Micelle size change with temperature” value is on record as “changed according to a temperature”. Also, on β2AR / β2AR-Gs complex [3], the “Size/homogeneity of β2AR protein-detergent complexes (SEC)” value is given as “homogeneous PDCs with the same size as that formed by DDM”. In addition, the “β2AR-Gs complex stability by SEC profiles” value with β2AR / β2AR-Gs complex [4] is on record as “perfectly maintained complex stability”. For the same compound, the “Conformational change / function of mBBr-β2AR with ISO and Gs” value on mBBr-β2AR is “retains an original protein function”. Further, the “Particle dispersity of β2AR-Gs complex in negative stain EM” value on β2AR-Gs complex was “highly mono-dispersed particles”.

The values above are taken from patent US11279726B2, “Norbornene-based amphipathic compound and utilization thereof” (Industry-University Cooperation Foundation Hanyang …, priority 2017, dated 2022).
